Measured values from ChEMBL document CHEMBL3774317, “Design and synthesis of novel tamoxifen analogues that avoid CYP2D6 metabolism” (Eur J Med Chem, 2016).

Legend:
[1] = Cytotoxicity against human HCT116 cells assessed as growth inhibition after 48 hrs by SRB assay; format: functional; conditions: HCT-116, 48 h
[2] = system: HT-29; experiment: Cytotoxicity against human HT-29 cells assessed as growth inhibition after 48 hrs by SRB assay; format: functional; conditions: HT-29, 48 h
[3] = system: Malme-3M; experiment: Cytotoxicity against human MALME-3M cells assessed as growth inhibition after 48 hrs by SRB assay; format: functional
[4] = system: KM12; experiment: Cytotoxicity against human KM12 cells assessed as growth inhibition after 48 hrs by SRB assay; format: functional; conditions: KM12, 48 h
[5] = system: NCI-H226; experiment: Cytotoxicity against human NCI-H226 cells assessed as growth inhibition after 48 hrs by SRB assay; format: functional; conditions: NCI-H226, 48 h
[6] = system: K562; experiment: Cytotoxicity against human K562 cells assessed as growth inhibition after 48 hrs by SRB assay; format: functional; conditions: K562, 48 h
[7] = system: NCI-H322M; experiment: Cytotoxicity against human NCI-H322M cells assessed as growth inhibition after 48 hrs by SRB assay; format: functional
[8] = Cytotoxicity against human DU145 cells assessed as growth inhibition after 48 hrs by SRB assay; format: functional; conditions: DU-145, 48 h
[9] = system: SK-MEL-28; experiment: Cytotoxicity against human SK-MEL-28 cells assessed as growth inhibition after 48 hrs by SRB assay; format: functional; conditions: SK-MEL-28, 48 h
[10] = Cytotoxicity against human COLO205 cells assessed as growth inhibition after 48 hrs by SRB assay; format: functional; conditions: COLO 205, 48 h
[11] = system: SN12C; experiment: Cytotoxicity against human SN12C cells assessed as growth inhibition after 48 hrs by SRB assay; format: functional
[12] = Cytotoxicity against human HCT15 cells assessed as growth inhibition after 48 hrs by SRB assay; format: functional; conditions: HCT-15, 48 h
[13] = system: A549; experiment: Cytotoxicity against human A549 cells assessed as growth inhibition after 48 hrs by SRB assay; format: functional; conditions: A549, 48 h
[14] = Cytotoxicity against human Hs 578T cells assessed as growth inhibition after 48 hrs by SRB assay; format: functional
[15] = system: U-251; experiment: Cytotoxicity against human U251 cells assessed as growth inhibition after 48 hrs by SRB assay; format: functional; conditions: U-251, 48 h
[16] = Cytotoxicity against human LOXIMVI cells assessed as growth inhibition after 48 hrs by SRB assay; format: functional; conditions: LOX IMVI
[17] = Cytotoxicity against human SF268 cells assessed as growth inhibition after 48 hrs by SRB assay; format: functional; conditions: SF-268, 48 h
[18] = system: MDA-MB-468; experiment: Cytotoxicity against human MDA-MB-468 cells assessed as growth inhibition after 48 hrs by SRB assay; format: functional; conditions: MDA-MB-468, 48 h
[19] = Cytotoxicity against human SNB19 cells assessed as growth inhibition after 48 hrs by SRB assay; format: functional; conditions: SNB-19, 48 h
[20] = Cytotoxicity against human HOP92 cells assessed as growth inhibition after 48 hrs by SRB assay; format: functional; conditions: HOP-92, 48 h
[21] = system: MDA-MB-231; experiment: Cytotoxicity against human MDA-MB-231 cells assessed as growth inhibition after 48 hrs by SRB assay; format: functional; conditions: MDA-MB-231, 48 h
[22] = system: MCF7; experiment: Antiproliferative activity against human MCF7 cells after 72 hrs by MTT assay; conditions: mcf7
[23] = Cytotoxicity against human IGROV1 cells assessed as growth inhibition after 48 hrs by SRB assay; format: functional; conditions: IGROV-1, 48 h
[24] = system: NCI-H460; experiment: Cytotoxicity against human NCI-H460 cells assessed as growth inhibition after 48 hrs by SRB assay; format: functional; conditions: NCI-H460, 48 h
[25] = Cytotoxicity against human RPMI8226 cells assessed as growth inhibition after 48 hrs by SRB assay; format: functional; conditions: RPMI-8226, 48 h
[26] = system: SR; experiment: Cytotoxicity against human SR cells assessed as growth inhibition after 48 hrs by SRB assay; format: functional
[27] = Cytotoxicity against human TK10 cells assessed as growth inhibition after 48 hrs by SRB assay; format: functional; conditions: TK-10, 48 h
[28] = Cytotoxicity against human BT549 cells assessed as growth inhibition after 48 hrs by SRB assay; format: functional; conditions: BT-549, 48 h
[29] = Cytotoxicity against human PC3 cells assessed as growth inhibition after 48 hrs by SRB assay; format: functional; conditions: PC-3, 48 h
[30] = Cytotoxicity against human UACC257 cells assessed as growth inhibition after 48 hrs by SRB assay; format: functional; conditions: UACC-257, 48 h
[31] = system: 786-0; experiment: Cytotoxicity against human 786-0 cells assessed as growth inhibition after 48 hrs by SRB assay; format: functional; conditions: 786-0, 48 h
[32] = Cytotoxicity against human SF295 cells assessed as growth inhibition after 48 hrs by SRB assay; format: functional; conditions: SF-295, 48 h
[33] = system: A498; experiment: Cytotoxicity against human A498 cells assessed as growth inhibition after 48 hrs by SRB assay; format: functional; conditions: A498, 48 h
[34] = read-out: LC50 (the source's name)

Compound: C/C(=C(/c1ccc(O)cc1)c1ccc(OCCN2CCCC2)cc1)c1ccccc1
- GI50 [1]: 2.92 µM
- LC50 [1]: 32.6 µM
- TGI [1]: 10.1 µM
- GI50 [2]: 1.35 µM
- TGI [2]: 3.2 µM
- CC50 [2, 34]: 7.58 µM
- GI50 [3]: 1.7 µM
- TGI [3]: 3.41 µM
- CC50 [3, 34]: 6.84 µM
- GI50 [4]: 3.51 µM
- LC50 (concentration giving 50% net cell kill) [4]: 41.5 µM
- TGI [4]: 13.2 µM
- GI50 [5]: 11.3 µM
- LC50 (50% lethal concentration) [5]: 79 µM
- TGI [5]: 29.8 µM
- GI50 [6]: 1.81 µM
- LC50 [6]: 23.6 µM
- TGI [6]: 4.77 µM
- GI50 [7]: 5.12 µM
- TGI [7]: 18.6 µM
- CC50 [7, 34]: 47 µM
- GI50 [8]: 9.72 µM
- LC50 [8]: 46.3 µM
- TGI [8]: 21.4 µM
- GI50 [9]: 1.65 µM
- LC50 (concentration killing 50% of starting cells) [9]: 7.05 µM
- TGI [9]: 3.41 µM
- GI50 [10]: 1.7 µM
- TGI [10]: 3.38 µM
- CC50 [10, 34]: 6.73 µM
- GI50 [11]: 9.17 µM
- LC50 (concentration killing 50% of cells) [11]: 68.7 µM
- TGI [11]: 25.7 µM
- GI50 [12]: 1.81 µM
- LC50 (concentration killing 50% of cells) [12]: 14.4 µM
- TGI [12]: 4.64 µM
- GI50 [13]: 3.53 µM
- LC50 [13]: 35 µM
- TGI [13]: 11 µM
- GI50 [14]: 2.96 µM
- TGI [14]: 9.9 µM
- CC50 [14, 34]: > 100 µM
- GI50 [15]: 2.24 µM
- LC50 (50% lethal concentration) [15]: 18 µM
- TGI [15]: 5.49 µM
- GI50 [16]: 1.72 µM
- LC50 (concentration killing 50% of cells) [16]: 6.29 µM
- TGI [16]: 3.29 µM
- GI50 [17]: 5.58 µM
- LC50 [17]: 55.2 µM
- TGI [17]: 20.7 µM
- GI50 [18]: 1.84 µM
- TGI [18]: 4.47 µM
- CC50 [18, 34]: 13 µM
- GI50 [19]: 2.95 µM
- TGI [19]: 8.1 µM
- CC50 [19, 34]: 42.2 µM
- GI50 [20]: 2.24 µM
- TGI [20]: 7.34 µM
- CC50 [20, 34]: 31.2 µM
- GI50 [21]: 3.51 µM
- LC50 [21]: 45.7 µM
- TGI [21]: 8.4 µM
- IC50 [22]: < 1 µM
- GI50 [23]: 6.8 µM
- TGI [23]: 27 µM
- CC50 [23, 34]: 90.7 µM
- GI50 [24]: 2.36 µM
- TGI [24]: 5.38 µM
- CC50 [24, 34]: 16.9 µM
- GI50 [25]: 2.4 µM
- LC50 [25]: 65 µM
- TGI [25]: 6.72 µM
- GI50 [26]: 1.93 µM
- TGI [26]: 5.75 µM
- CC50 [26, 34]: 40.6 µM
- GI50 [27]: 4.61 µM
- LC50 [27]: 40.7 µM
- TGI [27]: 16.4 µM
- GI50 [28]: 4.2 µM
- TGI [28]: 15.7 µM
- CC50 [28, 34]: 39.6 µM
- GI50 [29]: 4.28 µM
- LC50 [29]: 40.1 µM
- TGI [29]: 14.7 µM
- GI50 [30]: 2.03 µM
- LC50 [30]: 7.61 µM
- TGI [30]: 3.93 µM
- GI50 [31]: 1.86 µM
- TGI [31]: 4.09 µM
- CC50 [31, 34]: 9 µM
- GI50 [32]: 1.95 µM
- LC50 (concentration killing 50% of cells) [32]: 8.99 µM
- TGI [32]: 4.19 µM
- GI50 [33]: 1.67 µM
- LC50 [33]: 38.5 µM
- TGI [33]: 8.49 µM
